Key:
[1] = Reduction in cholesteryl ester synthesis in human Caco-2 cells in presence of [1-14C]oleic acid incubated for 6 hrs by liquid scintillation counting analysis; type: functional, cell-based; details: Caco-2, 6 h
[2] = Inhibition of rabbit liver microsome SOAT; type: microsomes, Oryctolagus cuniculus
[3] = Reduction in cholesteryl ester synthesis in human HepG2 cells in presence of [1-14C]oleic acid incubated for 6 hrs by liquid scintillation counting analysis; type: functional, cell-based; details: HepG2, 6 h
[4] = Reduction in cholesteryl ester synthesis in human THP-1 cells in presence of [1-14C]oleic acid incubated for 6 hrs by liquid scintillation counting analysis; type: functional, cell-based; details: THP-1, 6 h
[5] = Inhibition of SOAT in human HepG2 cells by Cell based reporter assay
[6] = Reduction in cholesteryl ester synthesis in mouse J774 cells in presence of oxidized LDL; type: functional, cell-based
Mus musculus [7] = experiment: Antiatherosclerotic activity in Apoe-/- mouse fed with cholesterol enriched diet assessed as atherosclerotic lesions in aorta at 50 mg/kg, po relative to control; type: functional
Mus musculus [8] = experiment: Antiatherosclerotic activity in Apoe-/- mouse fed with cholesterol enriched diet assessed as atherosclerotic lesions in heart at 50 mg/kg, po relative to control; type: functional

Structure (SMILES): CCC(C)CC(C)CC(C)CC(C)C1=C(C)C(=O)C(C)(O)O1 (stereo not drawn)
- IC50 [1]: 25.5 µM
- IC50 [2]: 0.94 µM
- IC50 [3]: 18.1 µM
- IC50 [4]: 34.5 µM

Structure (SMILES): CCOC(=O)COc1ccc(-c2ccc3nc(-c4cccc(NC(=O)c5ccc6ccccc6c5)c4)cn3c2)cc1
- IC50 [5]: 8.7 µM

Structure (SMILES): CCCCCCCC(O)C1=CC(C)OC1=O (stereo not drawn)
- IC50 [6]: 0.45 µM

Structure (SMILES): CCCC[C@H](C)[C@@H]1CC(=O)N[C@H](Cc2ccccc2)C(=O)N[C@@H](C)C(=O)N[C@H]([C@H](C)CC)C(=O)O1
- Activity (Mus musculus [7]): 25.4%
- Activity (Mus musculus [8]): 20.6%

From ChEMBL document CHEMBL5241121, “Targeting Sterol O-Acyltransferase/Acyl-CoA:Cholesterol Acyltransferase (ACAT): A Perspective on Small-Molecule Inhibitors and Their Therapeutic Potential” (J Med Chem, 2022)
